Reference: patent publication US20070167526A1, “Topical mecamylamine formulations for ocular administration and uses thereof” (priority 2005, published 2007)
Where two headings read alike, the source gives them in different places.

What was measured:
[1] = Ocular bioavailability following intravenous administration (Example 2); type: in vivo, New Zealand White rabbit; conditions: rabbit; 15 mg/kg i.v.; FIG. 3
From the text: This study was designed to model the ocular bioavailability of mecamylamine when administered systemically. Rabbit eyes are the preferred model for in vivo modeling of ocular drugs, however, the rabbit is not the subject of choice for modeling oral bioavailability. However, systemic administration does emulate orally administered mecamylamine to a reasonable approximation since mecamylamine has rapid absorption and high oral bioavailability. Therefore, intravenous injection was used to model ocular bioavailability of mecamylamine administered systemically, in order to determine the deposition of mecamylamine to the plasma, vitreous and posterior tissues (retina/choroid) of the eye from the blood.
The study comprised 2 groups (each N=6, 12 rabbits total) of male NZW (New Zealand White) rabbits weighing approximately 2.5-3 kg and obtained from Kralek Farms (Turlock, Calif.). Mecamylamine solution, prepared as described in Example 1, at a dose of 15 mg/kg was delivered via i.v. infusion as either a short infusion (1 hr) or slow infusion (6 hr) in rabbits sedated by ketamine/xylazine, with the slow infusion intended to model controlled systemic release of the mecamylamine.
For both groups, samples of the vitreous(≧0.1 ml) and plasma were withdrawn at 6 time points: pre-dose, 30 min, 1, 2, 4, and 6 hr. At 6 hours, all animals were sacrificed and vitreous and retinal tissues were collected. The total amount of mecamylamine administered during each infusion was the same, based on the weight of the individual rabbit.
The concentrations of mecamylamine present in the various samples were analyzed as described in Example 6, below.

[2] = in vivo; conditions: rabbit
Protocol: As used herein, the term “topically administered to a rabbit eye,” and cognates thereof, refers to the administration of a particular mecamylamine formulation, including formulations of pharmaceutically acceptable salts of mecamylamine, by applying 100 μL of the mecamylamine formulation to the cornea of each eye (2 drops of 50 μL each), wherein at the time of application the bottom eyelid is separated from the surface of the eye to make a pocket to ensure the entire dose is retained in contact with the eye. When the concentration of mecamylamine in plasma and in the retinal/choroidal tissue is to be measured in connection with the calculation of the ratio of the mecamylamine concentration in the retina/choroid versus the concentration of mecamylamine in plasma, the concentration of each is determined 1 hour after application of the formulation. The amount of mecamylamine present in plasma and the retina/choroid is determined by LC/MS/MS using internal standards of dextromethorphan and diphenhydramine and a standard of known concentration of mecamylamine. An exemplary method of administration of the topical formulation of mecamylamine is provided in Example 5. An exemplary LC/MS/MS method for determining the ratios described herein is given in detail in Example 6. When the mean maximum concentration of mecamylamine in plasma is to be determined, the concentration is again determined as described above and in Example 6. The term “mean maximum concentration of mecamylamine,” and its cognates, as used herein refers to the mean maximum concentration of mecamylamine measured in plasma when monitored over a 6 hour time period after administration of the formulation. When the mean total concentration of mecamylamine in plasma is to be determined, the concentration is again determined as described above and in Example 6. The term “total concentration of mecamylamine in plasma measured as the area under the curve,” (AUC) and cognates thereof, refers to summation of the areas under plot of the drug plasma versus time using a simple trapezoidal method with drug plasma time points taken to include 1, 3 and 6 hours after topical administration. Determination of AUC for corneal tissue, retinal/choroid tissue and aqueous humor is determined similarly. When the concentration of mecamylamine in plasma and in the corneal tissue is to be measured in connection with the calculation of the ratio of the mecamylamine concentration in the cornea (or aqueous humor) versus the concentration of mecamylamine in plasma, the concentration of each is determined 1 hour after application of 50 μl of the formulation. The amount of mecamylamine present in plasma and the cornea (or aqueous humor) is determined by LC/MS/MS using internal standards of dextromethorphan and diphenhydramine and a standard of known concentration of mecamylamine. An exemplary method of administration of the topical formulation of mecamylamine is provided in Example 5. An exemplary LC/MS/MS method for determining the ratios described herein is given in detail in Example 6.
A single dose of a polymer-free solution, gellan gum formulation and hypromellose formulation containing 3% mecamylamine hydrochloride, was instilled in the eyes of rabbits (Dutch-belted male rabbits (Convance, Denver, Pa.) minimum age 2 months and with weights of 1.6 to 1.8 kg). Two animals were euthanized 30 minutes, 1 hour or 3 hours after dosing.
Sample of blood and ocular tissue (obtained as described in previous examples) were analyzed for mecamylamine concentration using an LC MS/MS method up to 3 hours after dosing.
The area-under-the-curve (AUC) was calculated using a trapezoidal rule on a population pharmacokinetic basis (see Table 9).

[3] = 6-hour ocular pharmacokinetics of 2% Mecamylamine GELRITE solution following topical instillation (Example 10); type: in vivo, New Zealand White rabbit; conditions: rabbit; for concentration at 1 h / concentration at 3 h / concentration at 6 h: female, New Zealand White, topical; for Mecamylamine concentration in blood Cell Fraction, Mean / Mecamylamine concentration in blood Plasma, Mean: Pre
Protocol: The time of each dose administration was recorded. There was no mortality in the treatment group.

[4] = cited from earlier work

SMILES: CNC1(C)C2CCC(C2)C1(C)C (centres unmarked) [mecamylamine, N-2,3,3-tetramethylbicyclo(2.2.1)heptan-2-amine]
- amount of mecamylamine reaching the retina/choroid, long infusion versus short infusion [1]: more than 2 fold
- Kp at 1 h ([2]; male, Dutch-belted, in vivo): ≥ 1000
- ratio of the concentration of mecamylamine in the aqueous humor versus plasma ([2]; male, Dutch-belted, in vivo, 1 h): at least 50:1
- AUC ([2]; male, Dutch-belted, in vivo, topical or ocular): < 85 ng·h/mL
- safety issues during the study ([2]; single ocular dose): No safety issues arose
- concentration at 1 h ([3]; aqueous humor, 2% in GELRITE, 2 × 50 μL, OS (unilateral) treated eye, 1 hr, read-out: Mecamylamine concentration in Aqueous humor, Mean): 2510 ng/g
- concentration at 1 h ([3]; aqueous humor, 2% in GELRITE, 2 × 50 μL, OU (bilateral), 1 hr, read-out: Mecamylamine concentration in Aqueous humor, Mean): 3910 ng/g
- concentration at 3 h ([3]; aqueous humor, 2% in GELRITE, 2 × 50 μL, OU (bilateral), 3 hr, read-out: Mecamylamine concentration in Aqueous humor, Mean): 500 ng/g
- concentration at 6 h ([3]; aqueous humor, 2% in GELRITE, 2 × 50 μL, OU (bilateral), 6 hr, read-out: Mecamylamine concentration in Aqueous humor, Mean): 48.9 ng/g
- concentration at 1 h ([3]; aqueous humor, fellow (vehicle) eye of unilaterally dosed animals, 1 hr, read-out: Mecamylamine concentration in Aqueous humor, Mean): 9.7 ng/g
- concentration at 1 h ([3]; blood cell fraction, group MEC OS 1 hr, Post, read-out: Mecamylamine concentration in blood Cell Fraction, Mean): 15 ng/mL
- concentration at 1 h ([3]; blood cell fraction, group MEC OU 1 hr, Post, read-out: Mecamylamine concentration in blood Cell Fraction, Mean): 33.1 ng/mL
- concentration at 3 h ([3]; blood cell fraction, group MEC OU 3 hr, Post, read-out: Mecamylamine concentration in blood Cell Fraction, Mean): 7 ng/mL
- concentration at 6 h ([3]; blood cell fraction, group MEC OU 6 hr, Post, read-out: Mecamylamine concentration in blood Cell Fraction, Mean): 1.2 ng/mL
- concentration at 1 h ([3]; choroid (treated eye), 2% in GELRITE, 2 × 50 μL, OS (unilateral) treated eye, 1 hr, read-out: Mecamylamine concentration in Choroid, Mean): ~2800 ng/g
- concentration at 1 h ([3]; choroid of the fellow (vehicle) eye, fellow (vehicle) eye of unilaterally dosed animals, 1 hr, read-out: Mecamylamine concentration in Choroid, Mean): ~700 ng/g
- concentration at 1 h ([3]; choroid, 2% in GELRITE, 2 × 50 μL, OU (bilateral), 1 hr, read-out: Mecamylamine concentration in Choroid, Mean): ~14000 ng/g
- concentration at 6 h ([3]; choroid, 2% in GELRITE, 2 × 50 μL, OU (bilateral), 6 hr, read-out: Mecamylamine concentration in Choroid, Mean): ~260 ng/g
- concentration at 1 h ([3]; cornea, 2% in GELRITE, 2 × 50 μL, OS (unilateral) treated eye, 1 hr, read-out: Mecamylamine concentration in Cornea, Mean): 9600 ng/g
- concentration at 1 h ([3]; cornea, 2% in GELRITE, 2 × 50 μL, OU (bilateral), 1 hr, read-out: Mecamylamine concentration in Cornea, Mean): 17900 ng/g
- concentration at 3 h ([3]; cornea, 2% in GELRITE, 2 × 50 μL, OU (bilateral), 3 hr, read-out: Mecamylamine concentration in Cornea, Mean): 3820 ng/g
- concentration at 6 h ([3]; cornea, 2% in GELRITE, 2 × 50 μL, OU (bilateral), 6 hr, read-out: Mecamylamine concentration in Cornea, Mean): 1230 ng/g
- concentration at 1 h ([3]; cornea, fellow (vehicle) eye of unilaterally dosed animals, 1 hr, read-out: Mecamylamine concentration in Cornea, Mean): 652 ng/g
- concentration at 1 h ([3]; plasma, group MEC OS 1 hr, Post, read-out: Mecamylamine concentration in blood Plasma, Mean): 16.3 ng/mL
- concentration at 1 h ([3]; plasma, group MEC OU 1 hr, Post, read-out: Mecamylamine concentration in blood Plasma, Mean): 37.8 ng/mL
- concentration at 3 h ([3]; plasma, group MEC OU 3 hr, Post, read-out: Mecamylamine concentration in blood Plasma, Mean): 8.3 ng/mL
- concentration at 6 h ([3]; plasma, group MEC OU 6 hr, Post, read-out: Mecamylamine concentration in blood Plasma, Mean): 0.3 ng/mL
- concentration at 1 h ([3]; retina, 2% in GELRITE, 2 × 50 μL, OS (unilateral) treated eye, 1 hr, read-out: Mecamylamine concentration in Retina, Mean): 4160 ng/g
- concentration at 1 h ([3]; retina, 2% in GELRITE, 2 × 50 μL, OU (bilateral), 1 hr, read-out: Mecamylamine concentration in Retina, Mean): 14700 ng/g
- concentration at 3 h ([3]; retina, 2% in GELRITE, 2 × 50 μL, OU (bilateral), 3 hr, read-out: Mecamylamine concentration in Retina, Mean): 563 ng/g
- concentration at 6 h ([3]; retina, 2% in GELRITE, 2 × 50 μL, OU (bilateral), 6 hr, read-out: Mecamylamine concentration in Retina, Mean): 310 ng/g
- concentration at 1 h ([3]; retina, fellow (vehicle) eye of unilaterally dosed animals, 1 hr, read-out: Mecamylamine concentration in Retina, Mean): 781 ng/g
- concentration at 1 h ([3]; vitreous humor, 2% in GELRITE, 2 × 50 μL, OS (unilateral) treated eye, 1 hr, read-out: Mecamylamine concentration in Vitreous humor, Mean): 37.8 ng/g
- concentration at 1 h ([3]; vitreous humor, 2% in GELRITE, 2 × 50 μL, OU (bilateral), 1 hr, read-out: Mecamylamine concentration in Vitreous humor, Mean): 131 ng/g
- concentration at 3 h ([3]; vitreous humor, 2% in GELRITE, 2 × 50 μL, OU (bilateral), 3 hr, read-out: Mecamylamine concentration in Vitreous humor, Mean): 17.7 ng/g
- concentration at 6 h ([3]; vitreous humor, 2% in GELRITE, 2 × 50 μL, OU (bilateral), 6 hr, read-out: Mecamylamine concentration in Vitreous humor, Mean): 5.9 ng/g
- concentration at 1 h ([3]; vitreous humor, fellow (vehicle) eye of unilaterally dosed animals, 1 hr, read-out: Mecamylamine concentration in Vitreous humor, Mean): 10.4 ng/g
- Mecamylamine concentration in Choroid, Mean ([3]; 2% in GELRITE, 2 × 50 μL, OS (unilateral) treated eye, 1 hr, listed as MEC): 2806.7 ng/g
- Mecamylamine concentration in Choroid, Mean ([3]; 2% in GELRITE, 2 × 50 μL, OU (bilateral), 1 hr, listed as MEC): 14170.0 ng/g
- Mecamylamine concentration in Choroid, Mean ([3]; 2% in GELRITE, 2 × 50 μL, OU (bilateral), 3 hr): ~500 ng/g
- Mecamylamine concentration in Choroid, Mean ([3]; 2% in GELRITE, 2 × 50 μL, OU (bilateral), 3 hr, listed as MEC): 1086.0 ng/g
- Mecamylamine concentration in Choroid, Mean ([3]; 2% in GELRITE, 2 × 50 μL, OU (bilateral), 6 hr, listed as MEC): 264.5 ng/g
- Mean levels in the plasma and packed cells ([3]; 2% in GELRITE, highest one hour after bilateral dosing): 5 to 38 ng/mL
- Mecamylamine concentration in Choroid, Mean ([3]; fellow (vehicle) eye of unilaterally dosed animals, 1 hr, listed as MEC): 705.7 ng/g
- Mecamylamine concentration in blood Cell Fraction, Mean ([3]; group MEC OS 1 hr): 0.0 ng/mL
- Mecamylamine concentration in blood Plasma, Mean ([3]; group MEC OS 1 hr): 0.0 ng/mL
- Mecamylamine concentration in blood Cell Fraction, Mean ([3]; group MEC OU 1 hr): 0.0 ng/mL
- Mecamylamine concentration in blood Plasma, Mean ([3]; group MEC OU 1 hr): 0.0 ng/mL
- Mecamylamine concentration in blood Cell Fraction, Mean ([3]; group MEC OU 3 hr): 0.0 ng/mL
- Mecamylamine concentration in blood Plasma, Mean ([3]; group MEC OU 3 hr): 0.0 ng/mL
- Mecamylamine concentration in blood Cell Fraction, Mean ([3]; group MEC OU 6 hr): 0.0 ng/mL
- Mecamylamine concentration in blood Plasma, Mean ([3]; group MEC OU 6 hr): 0.0 ng/mL
- pka [4]: ~11.2
